One assay concerns DLD-1 BRCA2−/− cells. The assay is described as follows: Homologous recombination synthetic lethal inhibition of proliferation, DLD-1 BRCA2-/- (Cell Titre Glo 3D). Type of assay: cell-based. The following applies: Homo sapiens, DLD-1, 288 h, DLD-1 BRCA2−/− cells, 12 days; read-out: POLQ PD Prolif Lumin BRCA2 −/− mean pIC50 (converted). The procedure, abridged:
(§1)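 DLD-1 BRCA2−/− and parental DLD-1 cells exposed to 10-point dose range (10 μM to 0.51 nM, 3-fold) in RPMI/10% FBS at 37 °C, with medium and compound replenished on day 6. Viability by Cell Titre Glo 3D luminescence at day 7 (DLD-1) or day 12 (BRCA2−/−); IC50 as concentration halving maximum signal.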

In another assay the test system is DLD-1 cells. The assay is described as follows: Inhibition of proliferation, DLD-1 BRCA2 wt control (Cell Titre Glo 3D). The class given is cell-based. The following applies: Homo sapiens, DLD-1, 168 h, DLD-1 BRCA2 wt cells, 7 days; read-out: POLQ PD Prolif Lumin DLD1 mean pIC50 (converted). A digest of the protocol: as §1

A value given as a limit tells only on which side of the number the result lay.

On to `CCC1(Oc2ncnc3c2nc(-c2ccc(OCCN4CCNCC4)cc2Cl)n3Cc2ccccc2)CC1` [Example Q2, 9-benzyl-8-(2-chloro-4-(2-(piperazin-1-yl)ethoxy)phenyl)-6-(1-ethylcyclopropoxy)-9H-purine], for which the IC50 in the assay on DLD-1 BRCA2−/− cells is 398 nM; in the assay on DLD-1 cells it was 2 µM.
The corresponding values for `C#CC1(Oc2ncnc3c2nc(-c2ccc(OCCN4CCNCC4)cc2Cl)n3Cc2ccccc2)CCC1` [Example Q3, 9-benzyl-8-(2-chloro-4-(2-(piperazin-1-yl)ethoxy)phenyl)-6-(1-ethynylcyclobutoxy)-9H-purine] are 251 nM and 5.01 µM.
Take `Clc1cccc(Cn2c(-c3ccc(OCCN4CCNCC4)cc3Cl)nc3c(OC4CC4)ncnc32)c1` [Example Q4, 8-(2-chloro-4-(2-(piperazin-1-yl)ethoxy)phenyl)-9-(3-chlorobenzyl)-6-cyclopropoxy-9H-purine]: the IC50 is 200 nM in the assay on DLD-1 BRCA2−/− cells and 2 µM with DLD-1 cells.
In the case of `N#CC1(Oc2ncnc3c2nc(-c2ccc(OCCN4CCNCC4)cc2Cl)n3Cc2cccc(Cl)c2)CC1` [Example Q5, 1-((8-(2-chloro-4-(2-(piperazin-1-yl)ethoxy)phenyl)-9-(3-chlorobenzyl)-9H-purin-6-yl)oxy)cyclopropane-1-carbonitrile], the results for the IC50 in the assay with DLD-1 BRCA2−/− cells and in the assay with DLD-1 cells were 158 nM and 6.31 µM, respectively.
Consider `CC1(Oc2ncnc3c2nc(-c2ccc(OCCN4CC5(CC(O)C5)C4)cc2Cl)n3Cc2cc(Cl)ccn2)CC1` [Example R1, 2-(2-(3-chloro-4-(9-((4-chloropyridin-2-yl)methyl)-6-(1-methylcyclopropoxy)-9H-purin-8-yl)phenoxy)ethyl)-2-azaspiro[3.3]heptan-6-ol], for which the IC50 was 126 nM in the assay with DLD-1 BRCA2−/− cells and more than 10 µM with DLD-1 cells.
The corresponding values for `CC1(Oc2ncnc3c2nc(-c2ccc(OCCN4CC[C@@H](O)C4)cc2Cl)n3Cc2cc(Cl)ccn2)CC1` [Example R2, (R)-1-(2-(3-chloro-4-(9-((4-chloropyridin-2-yl)methyl)-6-(1-methylcyclopropoxy)-9H-purin-8-yl)phenoxy)ethyl)pyrrolidin-3-ol] are 126 nM and more than 10 µM.
Regarding `C[C@H]1CN(CCOc2ccc(-c3nc4c(OC5(C)CC5)ncnc4n3Cc3ccccc3)c(Cl)c2)CCN1` [Example R3, (S)-9-benzyl-8-(2-chloro-4-(2-(3-methylpiperazin-1-yl)ethoxy)phenyl)-6-(1-methylcyclopropoxy)-9H-purine], the IC50 in the assay on DLD-1 BRCA2−/− cells is 63.1 nM; with DLD-1 cells it was 3.16 µM.
For `CC1(Oc2ncnc3c2nc(-c2ccc(OCCN4CC5CCC(C4)N5)cc2Cl)n3Cc2ccccc2)CC1` [Example R4, 8-(4-(2-(3,8-diazabicyclo[3.2.1]octan-3-yl)ethoxy)-2-chlorophenyl)-9-benzyl-6-(1-methylcyclopropoxy)-9H-purine], the IC50 with DLD-1 BRCA2−/− cells was 126 nM; in the assay with DLD-1 cells it was 3.16 µM.
For `CC1(Oc2ncnc3c2nc(-c2ccc(OCCN4CC5CC(C4)N5)cc2Cl)n3Cc2ccccc2)CC1` [Example R5, 3-(2-(4-(9-benzyl-6-(1-methylcyclopropoxy)-9H-purin-8-yl)-3-chlorophenoxy)ethyl)-3,6-diazabicyclo[3.1.1]heptane], the IC50 with DLD-1 BRCA2−/− cells was 100 nM; in the assay on DLD-1 cells, 3.98 µM.
The matching figures for `C[C@@H]1CN(CCOc2ccc(-c3nc4c(OC5(C)CC5)ncnc4n3Cc3ccccc3)c(Cl)c2)CCN1` [Example R6, (R)-9-benzyl-8-(2-chloro-4-(2-(3-methylpiperazin-1-yl)ethoxy)phenyl)-6-(1-methylcyclopropoxy)-9H-purine]: 63.1 nM and 3.16 µM.
The corresponding values for `CC1(Oc2ncnc3c2nc(-c2ccc(OCCN4CCC[C@@H](O)C4)cc2Cl)n3Cc2ccccc2)CC1` [Example R7, (R)-1-(2-(4-(9-benzyl-6-(1-methylcyclopropoxy)-9H-purin-8-yl)-3-chlorophenoxy)ethyl)piperidin-3-ol] are 63.1 nM and 3.16 µM.
The corresponding values for `CC1(Oc2ncnc3c2nc(-c2ccc(OCCN4CC5(CNC(=O)C5)C4)cc2Cl)n3Cc2ccccc2)CC1` [Example R8, 2-(2-(4-(9-benzyl-6-(1-methylcyclopropoxy)-9H-purin-8-yl)-3-chlorophenoxy)ethyl)-2,6-diazaspiro[3.4]octan-7-one] are 251 nM and 3.98 µM.
For `C[C@@H]1CN(CCOc2ccc(-c3nc4c(OC5(C)CC5)ncnc4n3Cc3ccccc3)c(Cl)c2)C[C@H](C)N1` [Example R9, (cis)-9-benzyl-8-(2-chloro-4-(2-(3,5-dimethylpiperazin-1-yl)ethoxy)phenyl)-6-(1-methylcyclopropoxy)-9H-purine], the IC50 with DLD-1 BRCA2−/− cells was 50.1 nM; in the assay on DLD-1 cells, 1.58 µM.
The corresponding values for `C[C@H]1CNCCN1CCOc1ccc(-c2nc3c(OC4(C)CC4)ncnc3n2Cc2ccccc2)c(Cl)c1` [Example R10, (S)-9-benzyl-8-(2-chloro-4-(2-(2-methylpiperazin-1-yl)ethoxy)phenyl)-6-(1-methylcyclopropoxy)-9H-purine] are 126 nM and 2 µM.
Consider `C[C@@H]1CNCCN1CCOc1ccc(-c2nc3c(OC4(C)CC4)ncnc3n2Cc2ccccc2)c(Cl)c1` [Example R11, (R)-9-benzyl-8-(2-chloro-4-(2-(2-methylpiperazin-1-yl)ethoxy)phenyl)-6-(1-methylcyclopropoxy)-9H-purine], for which the values for the IC50 with DLD-1 BRCA2−/− cells and in the assay on DLD-1 cells were 100 nM and 2.51 µM, respectively.
The corresponding values for `CC1(Oc2ncnc3c2nc(-c2ccc(OCCN4CCCNCC4=O)cc2Cl)n3Cc2ccccc2)CC1` [Example R12, 1-(2-(4-(9-benzyl-6-(1-methylcyclopropoxy)-9H-purin-8-yl)-3-chlorophenoxy)ethyl)-1,4-diazepan-2-one] are 100 nM and 2.51 µM.
The corresponding values for `CC1(Oc2ncnc3c2nc(-c2ccc(OCCN4C5CNCC4C5)cc2Cl)n3Cc2ccccc2)CC1` [Example R15, 6-(2-(4-(9-benzyl-6-(1-methylcyclopropoxy)-9H-purin-8-yl)-3-chlorophenoxy)ethyl)-3,6-diazabicyclo[3.1.1]heptane] are 501 nM and 5.01 µM.
The corresponding values for `CC1(Oc2ncnc3c2nc(-c2ccc(OCCN4CCNC5(CC5)C4)cc2Cl)n3Cc2ccccc2)CC1` [Example R17, 8-(4-(2-(4,7-diazaspiro[2.5]octan-7-yl)ethoxy)-2-chlorophenyl)-9-benzyl-6-(1-methylcyclopropoxy)-9H-purine] are 100 nM and 1 µM.
`CC1(Oc2ncnc3c2nc(-c2ccc(OCCN4CCN[C@@H](CO)C4)cc2Cl)n3Cc2ccccc2)CC1` [Example R18, (R)-(4-(2-(4-(9-benzyl-6-(1-methylcyclopropoxy)-9H-purin-8-yl)-3-chlorophenoxy)ethyl)piperazin-2-yl)methanol]: the IC50 with DLD-1 BRCA2−/− cells was 126 nM; in the assay on DLD-1 cells, 6.31 µM.
Take `CC1(Oc2ncnc3c2nc(-c2ccc(OCCN4C[C@@H]5C[C@H]4CN5)cc2Cl)n3Cc2ccccc2)CC1` [Example R19, 8-(4-(2-((1S,4S)-2,5-diazabicyclo[2.2.1]heptan-2-yl)ethoxy)-2-chlorophenyl)-9-benzyl-6-(1-methylcyclopropoxy)-9H-purine]: the IC50 is 200 nM in the assay with DLD-1 BRCA2−/− cells and 3.98 µM in the assay with DLD-1 cells.
For the compound `CC1(Oc2ncnc3c2nc(-c2ccc(OCCN4C[C@H]5C[C@@H]4CN5)cc2Cl)n3Cc2ccccc2)CC1` [Example R20, 8-(4-(2-((1R,4R)-2,5-diazabicyclo[2.2.1]heptan-2-yl)ethoxy)-2-chlorophenyl)-9-benzyl-6-(1-methylcyclopropoxy)-9H-purine], the IC50 was 200 nM with DLD-1 BRCA2−/− cells and 2.51 µM in the assay with DLD-1 cells.
The matching figures for `CC1(Oc2ncnc3c2nc(-c2ccc(OCCN4C[C@@H]5CC[C@H]4CN5)cc2Cl)n3Cc2ccccc2)CC1` [Example R21, (1S,4S)-2-(2-(4-(9-benzyl-6-(1-methylcyclopropoxy)-9H-purin-8-yl)-3-chlorophenoxy)ethyl)-2,5-diazabicyclo[2.2.2]octane]: 316 nM and 1.58 µM.
The corresponding values for `CC1(Oc2ncnc3c2nc(-c2ccc(OCCN4CCNCC45CC5)cc2Cl)n3Cc2ccccc2)CC1` [Example R22, 8-(4-(2-(4,7-diazaspiro[2.5]octan-4-yl)ethoxy)-2-chlorophenyl)-9-benzyl-6-(1-methylcyclopropoxy)-9H-purine] are 251 nM and 3.16 µM.
The matching figures for `CC1(Oc2ncnc3c2nc(-c2ccc(OCCCN4CCNCC4=O)cc2Cl)n3Cc2ccccc2)CC1` [Example S1, 1-(3-(4-(9-benzyl-6-(1-methylcyclopropoxy)-9H-purin-8-yl)-3-chlorophenoxy)propyl)piperazin-2-one]: 39.8 nM and more than 10 µM.
Turning to `CC1(Oc2ncnc3c2nc(-c2ccc(OCCCN4CCNC(=O)C4)cc2Cl)n3Cc2ccccc2)CC1` [Example S2, 4-(3-(4-(9-benzyl-6-(1-methylcyclopropoxy)-9H-purin-8-yl)-3-chlorophenoxy)propyl)piperazin-2-one], the values for the IC50 in the assay on DLD-1 BRCA2−/− cells and with DLD-1 cells were 50.1 nM and 2.51 µM, respectively.
The corresponding values for `CC1(Oc2ncnc3c2nc(-c2ccc(OCCN4CCNCC4)cc2Cl)n3Cc2cc(C3CC3)ccn2)CC1` [Example S3, 8-(2-chloro-4-(2-(piperazin-1-yl)ethoxy)phenyl)-9-((4-cyclopropylpyridin-2-yl)methyl)-6-(1-methylcyclopropoxy)-9H-purine] are 794 nM and more than 10 µM.
The matching figures for `CCc1ccnc(Cn2c(-c3ccc(OCCN4CCNCC4)cc3Cl)nc3c(OC4(C)CC4)ncnc32)c1` [Example S4, 8-(2-chloro-4-(2-(piperazin-1-yl)ethoxy)phenyl)-9-((4-ethylpyridin-2-yl)methyl)-6-(1-methylcyclopropoxy)-9H-purine]: 794 nM and more than 10 µM.
